Test results from patent US20230091225A1, “Bifunctional chimeric heterocyclic compounds for targeted degradation of androgen receptors and use thereof” (HINOVA PHARMACEUTICALS INC., priority 2019, published 2023).
Where two headings read alike, the source gives them in different places.

Assays:
Format in all cases: cell-based
[1] = tested on: LNCaP/AR cells; experiment: Inhibition of proliferation of LNCaP/AR prostate cancer cells (CCK-8)
[2] = molecular target: T1, androgen receptor (AR) (Homo sapiens, UniProt P10275); experiment: Degradation of androgen receptor (AR) protein in VCaP cells by Western blot; conditions: percentage of degraded AR at 100 nM, VCaP cells, 16 h
T1 sequence (P10275 1-920): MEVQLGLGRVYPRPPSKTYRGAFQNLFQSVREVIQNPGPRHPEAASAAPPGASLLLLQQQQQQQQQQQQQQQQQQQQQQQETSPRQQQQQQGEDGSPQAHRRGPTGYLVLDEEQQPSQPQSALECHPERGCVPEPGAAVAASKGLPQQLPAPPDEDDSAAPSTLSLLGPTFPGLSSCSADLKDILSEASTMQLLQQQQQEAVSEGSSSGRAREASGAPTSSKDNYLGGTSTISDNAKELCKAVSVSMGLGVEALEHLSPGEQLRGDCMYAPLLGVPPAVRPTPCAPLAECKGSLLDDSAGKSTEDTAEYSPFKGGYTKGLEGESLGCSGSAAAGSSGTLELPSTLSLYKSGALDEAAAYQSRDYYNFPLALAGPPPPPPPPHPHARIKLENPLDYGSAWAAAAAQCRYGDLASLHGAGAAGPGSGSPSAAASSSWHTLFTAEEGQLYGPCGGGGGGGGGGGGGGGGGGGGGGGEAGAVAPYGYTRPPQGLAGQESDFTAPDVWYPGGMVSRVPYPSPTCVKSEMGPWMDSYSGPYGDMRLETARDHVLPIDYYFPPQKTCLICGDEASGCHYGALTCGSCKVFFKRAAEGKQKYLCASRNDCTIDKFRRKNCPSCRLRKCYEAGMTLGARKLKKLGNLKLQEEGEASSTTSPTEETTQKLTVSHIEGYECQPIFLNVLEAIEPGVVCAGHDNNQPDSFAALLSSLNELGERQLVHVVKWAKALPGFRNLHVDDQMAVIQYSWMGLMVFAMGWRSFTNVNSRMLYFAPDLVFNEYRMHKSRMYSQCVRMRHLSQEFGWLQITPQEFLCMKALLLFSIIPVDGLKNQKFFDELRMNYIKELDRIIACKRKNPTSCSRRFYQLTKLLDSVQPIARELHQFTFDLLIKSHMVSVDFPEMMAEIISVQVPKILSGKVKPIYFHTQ
Outline: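 AR and β-actin levels were read by Western blot with ECL detection, loading 30 μg lysate protein per well. Before lysis, VCaP cells seeded at 5×10^5/well and grown overnight were exposed to compound for 16 h, two wells per concentration, keeping DMSO at 0.1%.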

[3] = molecular target: T1, androgen receptor (AR); experiment: Degradation of androgen receptor (AR) protein in VCaP cells by ELISA; conditions: for inhibition at 0.1 µM: percentage of degraded AR at 100 nM, VCaP cells, 16 h, ELISA, read-out: % degradation
[4] = 144 h, proliferation of LNCap/AR cells, 6 days, CCK-8, read-out: IC50
[5] = proliferation of LNCap/AR cells, 6 days, CCK-8, read-out: IC50

N#Cc1ccc(OC2C[C@@H]3CN(C(=O)c4ccc(N5CCC(CN6CCN(c7ccc8c(c7)C(=O)N(C7CCC(=O)NC7=O)C8=O)CC6)CC5)nn4)C[C@@H]3C2)cc1Cl (some centres unmarked) [Compound 218]
IC50 [1, 4]: > 1000 nM
inhibition at 0.1 µM [2]: < 25%

CC1(C)C(Oc2ccc(C#N)c(Cl)c2)C(C)(C)C1N1Cc2nc(N3CCC(CN4CCN(c5cc6c(cc5F)CN([C@@H]5CCC(=O)NC5=O)C6=O)CC4)CC3)ccc2C1=O (some centres unmarked) [Compound 211]
IC50 [1, 5]: 100 to 500 nM
% degradation [2]: D (<25%)

CC1(C)[C@H](Oc2ccc(C#N)c(Cl)c2)C(C)(C)[C@H]1N1Cc2cc(N3CCC(CN4CCN(c5cc6c(cc5F)CN([C@@H]5CCC(=O)NC5=O)C6=O)CC4)CC3)ccc2C1=O [Compound 250]
IC50 [1, 5]: 100 to 500 nM
% degradation [2]: D (<25%)
% degradation [3]: D (key: A: >80%; B: 79%-50%; C: 49%-25%; D: <25%)

CC1(C)[C@H](Oc2ccc(C#N)c(Cl)c2)C(C)(C)[C@H]1N1Cc2cc(N3CCC(CN4CCN(c5ccc6c(c5)C(=O)N(C5CCC(=O)NC5=O)C6=O)CC4)CC3)ccc2C1=O (some centres unmarked) [Compound 249]
IC50 [1, 4]: 100 to 500 nM
inhibition at 0.1 µM [2]: < 25%

CC1(C)[C@H](Oc2ccc(C#N)c(Cl)c2)C(C)(C)[C@H]1N1Cc2cc(N3CCC(CN4CCN(c5ccc6c(c5)CN(C5CCC(=O)NC5=O)C6=O)CC4)CC3)ccc2C1=O (some centres unmarked) [Compound 248]
IC50 ([1]; LNCaP/AR, 144 h): 100 to 500 nM
inhibition at 0.1 µM [2]: < 25%

CC1(C)[C@H](NC(=O)c2ccc(N3CCC(CN4CCN(c5cc6c(cc5F)CN(C5CCC(=O)NC5=O)C6=O)CC4)CC3)nc2)C(C)(C)[C@H]1Oc1ccc(C#N)c(Cl)c1 (some centres unmarked) [Compound 214]
IC50 [1, 4]: < 100 nM
inhibition at 0.1 µM [2]: 50 to 79%

CC1(C)[C@H](Oc2ccc(C#N)c(Cl)c2)C(C)(C)[C@H]1N1Cc2cc(N3CCC(CN4CCN(c5cc6c(cc5F)C(=O)N(C5CCC(=O)NC5=O)C6)CC4)CC3)ccc2C1=O (some centres unmarked) [Compound 251]
IC50 [1, 4]: 100 to 500 nM
inhibition at 0.1 µM [2]: 25 to 49%

N#Cc1ccc(O[C@H]2CC[C@H](N3Cc4nc(N5CCC(OC6CCN(c7cccc8c7C(=O)N(C7CCC(=O)NC7=O)C8=O)CC6)CC5)ccc4C3=O)CC2)cc1Cl (some centres unmarked) [Compound 59, 2-chloro-4-(((1r,4r)-4-(2-(4-((1-(2-(2,6-dioxopiperidin-3-yl)-1,3-dioxoisoindolin-4-yl)piperidine-4-yl)oxy)piperidin-1-yl)-5-oxo-5H-pyrrolo[3,4-b]pyridin-6(7H)-yl)cyclohexyl)oxy)benzonitrile]
IC50 [1, 4]: > 1000 nM
inhibition at 0.1 µM [2]: < 25%
inhibition at 0.1 µM [3]: < 25%

CC1(C)[C@H](Oc2ccc(C#N)c(Cl)c2)C(C)(C)[C@H]1N1Cc2nc(N3CCC(CN4CCN(c5cc6c(cc5F)CN(C5CCC(=O)NC5=O)C6=O)CC4)CC3)ccc2C1=O (some centres unmarked) [Compound 205]
IC50 [1, 4]: < 100 nM
inhibition at 0.1 µM [2]: < 25%

N#Cc1ccc(O[C@H]2CC[C@H](NC(=O)c3ccc(N4CCC(NC5CCN(c6cc7c(cc6F)C(=O)N(C6CCC(=O)NC6=O)C7=O)CC5)CC4)cc3)CC2)cc1Cl (some centres unmarked) [Compound 219, N-((1r,4r)-4-(3-chloro-4-cyanophenoxy)cyclohexyl)-4-(4-((1-(2-(2,6-dioxopiperidin-3-yl)-6-fluoro-1,3-dioxoisoindolin-5-yl)piperidine-4-yl)amino)piperidin-1-yl)benzamide]
IC50 ([1]; LNCaP/AR, 144 h): 500 to 1000 nM
inhibition at 0.1 µM [2]: 25 to 49%

(2S,4R)-1-((S)-2-(4-(4-((2-((1r,3r)-3-(3-chloro-4-cyanophenoxy)-2,2,4,4-tetramethylcyclobutyl)-1-oxoisoindolin-5-yl)ethynyl)-1H-pyrazol-1-yl)butylamino)-3,3-dimethylbutanol)-4-hydroxy-N-((S)-1-(4-methylthiazol-5-yl)phenyl)ethyl)pyrrolidine-2-carboxamide [Compound 35]
IC50 [1, 5]: < 100 nM
% degradation [3]: B (key: A: >80%; B: 79%-50%; C: 49%-25%; D: <25%)

CC1(C)[C@H](NC(=O)c2ccc(N3CCC(CN4CCN(c5cc6c(cc5F)C(=O)N(C5CCC(=O)NC5=O)C6)CC4)CC3)nc2)C(C)(C)[C@H]1Oc1ccc(C#N)c(Cl)c1 (some centres unmarked) [Compound 213]
IC50 [1, 4]: > 1000 nM
inhibition at 0.1 µM [3]: 25 to 49%
